The values that follow come from the Deep4Chem optical property database.

This series in a line: photoluminescence quantum yield (fraction); solvent given as SMILES.
Where [1] appears, read: in O=P(c1ccccc1)(c1ccccc1)c1ccccc1Oc1ccccc1P(=O)(c1ccccc1)c1ccccc1.

On to `Clc1nc(Nc2ccccc2)nc(Nc2ccc3c4cccc5cccc(c6cccc2c63)c54)n1`, for which the photoluminescence quantum yield by setting is: (in C1COCCO1) 0.53; (in CC#N) 0.45; (in CCCCOCCCC) 0.49; (in CCOC(C)=O) 0.43.
As for `COC(=O)c1cc(=O)n(C)c2cc(-c3ccc4c(c3)OCCO4)sc12`, the photoluminescence quantum yield runs as follows: (in CC#N) 0.68; (in ClCCl) 0.83.
For `CN(C)c1ccc2c3c(c(=O)oc2c1)C=c1cc2c(cc1O3)=[N+](CCC(=O)O)CCC2`, the photoluminescence quantum yield reads like this: (in CC#N) 0.242; (in CO) 0.166; (in ClCCl) 0.685; (in O) 0.041.
Regarding `c1ccc(-c2nc(-c3ccccc3)nc(-c3ccc(-n4c5ccccc5c5cc6c(cc54)C4(c5ccccc5-c5ccccc54)c4ccccc4-6)cc3)n2)cc1`, the photoluminescence quantum yield under setting [1] was found to be 0.856.
The molecule `CN(C)c1ccc2c(c1)[Si](C)(C)C1=CC(=[N+](C)C)C=CC1=C2C#Cc1ccccc1` returned a photoluminescence quantum yield (in CO) of 0.07 and a photoluminescence quantum yield (in O) of 0.004.
As to `COc1ccc(-c2c3ccccc3c3n2[B-](F)(F)[N+]2=Cc4c5ccccc5c(-c5ccc(OC)cc5)n4[B-](F)(F)[N+]2=C3)cc1`, the photoluminescence quantum yield is, setting by setting: (in CC#N) 0.22; (in CCCCCC) 0.32; (in CN(C)C=O) 0.23; (in Cc1ccccc1) 0.31; (in ClCCl) 0.31.
`C(#Cc1cccc2nsnc12)c1ccc(-n2c3ccccc3c3ccccc32)cc1` gave a photoluminescence quantum yield (in ClCCl) of 0.54.
As for `CC(C)(C)c1ccc2c(c1)sc1[n+]2[B-](F)(F)n2c(c3cccc4cccc2c43)=C1C#N`, the photoluminescence quantum yield reads like this: (in C1CCOC1) 0.67; (in CC#N) 0.74; (in CCCCCC) 0.68; (in Cc1ccccc1) 0.69; (in ClCCl) 0.7.
On to `COc1cc(OC)c2c(c1)c1cc3oc(=O)cc(C)c3cc1c1cc(OC)cc(OC)c12`, for which the photoluminescence quantum yield (in ClC(Cl)Cl) stood at 0.1.
Under “in CC#N”, `CCOC(=O)c1c2c3c(cccc3c3cc4ccccc4cc13)N(C)C2=O` had a photoluminescence quantum yield of 0.37.
For `C(=C\c1ncc2ccccc2n1)/c1ccc(N2CCCCC2)cc1`, the photoluminescence quantum yield (in ClCCl) was found to be 0.21.
Regarding `COC1=[N+]2C(=C(c3ccccc3)c3cc(SC#N)c(OC)n3[B-]2(F)F)C=C1SC#N`, the photoluminescence quantum yield by setting is: (in CC#N) 0.1; (in CCCCCC) 0.1; (in CCOC(C)=O) 0.11; (in CO) 0.15; (in ClCCl) 0.17.
Regarding `c1ccc2c(c1)cc(-c1cc(-c3nccs3)nc(-c3nccs3)c1)c1ccccc12`, the photoluminescence quantum yield is, setting by setting: (in CC#N) 0.234; (in CCCCCC) 0.142; (in CO) 0.161; (in ClC(Cl)Cl) 0.312.
For `C[Si](C)(C)c1ccc(-c2ccc(-c3ccc(-c4ccc(-c5ccc([Si](C)(C)C)s5)cc4)c4nsnc34)cc2)s1`, the photoluminescence quantum yield (in C1CCOC1) was determined as 0.73.
For the molecule `O=C1c2cc(F)ccc2-c2cnccc21`, the photoluminescence quantum yield by setting is: (in CC#N) 0.015; (in CCCCCC) 0.0017; (in CCOC(C)=O) 0.02; (in Cc1ccccc1) 0.012; (in ClCCl) 0.018.
For the molecule `Cc1cc(C)c(C2=C3C=C(/C=C/C(=O)OC(C)(C)C)C=[N+]3[B-](F)(F)n3c2ccc3N2CCOCC2)c(C)c1`, the photoluminescence quantum yield runs as follows: (in CC#N) 0.13; (in CCCCCC) 0.88; (in CN(C)C=O) 0.15; (in CO) 0.21; (in Cc1ccccc1) 0.64; (in ClCCl) 0.49.
As for `Clc1cc(Cl)c(B2c3ccccc3Nc3ccccc32)c(Cl)c1`, the photoluminescence quantum yield (in ClCCl) was found to be 0.82.
Consider `COC(=O)C(NC(=O)OC(C)(C)C)c1ccc2oc(-c3cc(OC)ccc3OC)nc2c1` (stereo not given), for which the photoluminescence quantum yield stood at 0.51 (in CC1CCCCC1), 0.35 (in CC#N) and 0.37 (in CO).
Regarding `CC(=O)c1ccc(-c2cc3c(ccc4sccc43)s2)cc1`, where the note is “in ClCCl”, the photoluminescence quantum yield was 0.12.
In turn, `CC1=CC(/C=C/c2ccc(OCCCN=[N+]=[N-])cc2)=[N+]2C1=C(c1ccc(N3CCCCC3)cc1)c1c(C)cc(C)n1[B-]2(F)F` registered a photoluminescence quantum yield (in CO) of 0.81.
`CC1(C)OB(c2cc3ccc4cccc5ccc(c2)c3c45)OC1(C)C`: the photoluminescence quantum yield (in Cc1ccccc1) worked out at 0.72.
Take `CCCCCCc1cc2c3c(c1)c(=C1c4ccccc4S(=O)(=O)c4ccccc41)c1cc(CCCCCC)cc4c1N3c1c(cc(CCCCCC)cc1c4=C1c3ccccc3S(=O)(=O)c3ccccc31)c2=C1c2ccccc2S(=O)(=O)c2ccccc21`: the photoluminescence quantum yield (in ClCCl) was 0.47.
On to `O=[N+]([O-])c1ccc(-c2nc(/C=C/c3ccccc3)c(/C=C/c3ccccc3)[nH]2)cc1`, for which the photoluminescence quantum yield (in ClCCl) stood at 0.
The molecule `CC1=CC2=Nc3nc(C)[n+](C)cc3CN2C=C1` returned a photoluminescence quantum yield (in CC#N) of 0.85, a photoluminescence quantum yield (in CCO) of 0.86 and a photoluminescence quantum yield (in O) of 0.79.
The molecule `B1C=Cc2ccc3ccccc3c2N1` registered a photoluminescence quantum yield (in C1CCCCC1) of 0.61.
Take `N#Cc1cnc(-c2c3ccccc3c(-c3ccccc3)c3ccccc23)nc1`: the photoluminescence quantum yield reads like this: (in CCO) 0.04; (in ClCCl) 0.0001.
`O=C1c2ccc(-c3ccc(N(c4ccccc4)c4ccccc4)cc3)cc2S(=O)(=O)c2cccc(-c3ccc(N(c4ccccc4)c4ccccc4)cc3)c21`: the photoluminescence quantum yield (in c1ccc2c(c1)c1ccccc1n2-c1ccc(-c2ccc(-n3c4ccccc4c4ccccc43)cc2)cc1) was found to be 0.04.
`c1ccc([B-]2(c3ccccc3)Oc3ccc4ccccc4c3-c3c4ccccc4cc[n+]32)cc1`: the photoluminescence quantum yield (in Cc1ccccc1) was found to be 0.32.
Take `F[B-]1(F)n2c(ccc2-c2ccccc2)C(C(F)(F)F)=C2C=CC(c3ccccc3)=[N+]21`: under “in CCCCCC”, the photoluminescence quantum yield stood at 0.74.
As for `Oc1cccc(-c2nc(-c3ccccc3)c(-c3ccccc3)[nH]2)c1`, the photoluminescence quantum yield (in CO) was 0.24.
Consider `CC1(C)c2ccccc2-n2c(-c3ccc(-n4c5ccccc5c5ccccc54)cc3)nc3cccc1c32`, for which the photoluminescence quantum yield (in Cc1ccccc1) came to 0.99 and the photoluminescence quantum yield under setting [1] is 0.85.
`CC1=C2C3=C(CCc4ccccc43)C(C)=[N+]2[B-](F)(F)n2c(C)c3c(c21)-c1ccccc1CC3` returned a photoluminescence quantum yield (in CC#N) of 0.38.
`CC1(C)CC(NCc2ccc3ccc4cccc5ccc2c3c45)CC(C)(C)N1` showed a photoluminescence quantum yield (in C1CCCCC1) of 0.55, a photoluminescence quantum yield (in CC#N) of 0.04, a photoluminescence quantum yield (in CO) of 0.14 and a photoluminescence quantum yield (in ClC(Cl)Cl) of 0.08.
The molecule `Oc1ccc2ccccc2c1-c1nc(-c2ccccc2)c2ccccn12` gave a photoluminescence quantum yield (in ClCCl) of 0.136.
Same read-out and setting: the value for `COc1cn2cc(-c3ccc(C#N)cc3)[n-][n+]2c1` was 0.57.
`C1=C(c2ccccc2)C2=Nc3c(-c4ccccc4)cc4n3[B-]3(Oc5ccccc5C1=[N+]23)Oc1ccccc1-4` (stereo not given): the photoluminescence quantum yield (in Cc1ccccc1) was found to be 0.51.
In turn, `Cc1cc(N2c3ccccc3C(C)(C)c3ccccc32)ccc1-c1ncnc(-c2ccc(N3c4ccccc4C(C)(C)c4ccccc43)cc2C)c1C` came in with a photoluminescence quantum yield under setting [1] of 0.47.
For the setting “in ClC(Cl)Cl”, `CN(C)c1ccc(-c2ccc(-c3cc(-c4ccccc4)c(-c4ccccc4)c(-c4ccccc4)c3-c3ccccc3)cc2)cc1` displayed a photoluminescence quantum yield of 0.14.
`CC1(C)c2ccccc2N(c2ccc(-c3nnc(-c4ccc(-n5c6ccccc6c6ccccc65)cc4)o3)cc2)c2ccccc21` yielded a photoluminescence quantum yield under setting [1] of 0.67.
Where the note is “in ClCCl”, `CC(C)(C)NC(=O)c1cccc2ccc3c4ccccc4c4ccccc4c3c12` gave a photoluminescence quantum yield of 0.03.
With `C(=C\c1c2ccccc2cc2ccccc12)/c1cccc2ccccc12`, the photoluminescence quantum yield was 0.43 (in CC1CCCCC1) and 0.35 (in CC#N).
In turn, `Cc1ccc(C2=C3C=C4C(=[N+]3[B-](F)(F)n3c2cc2c3-c3ccccc3C23c2ccccc2-c2ccccc23)c2ccccc2C42c3ccccc3-c3ccccc32)cc1` showed a photoluminescence quantum yield (in C1CCOC1) of 0.67.
With `CCCCCCCN1C(=CC2=C([O-])C(=CC3=[N+](CCCCCCC)c4ccccc4C3(C)C)C2=C(C#N)C#N)C(C)(C)c2ccccc21`, the photoluminescence quantum yield worked out at 0.19 (in C1COCCO1), 0.13 (in CCO), 0.08 (in CN(C)C=O) and 0.18 (in ClC(Cl)Cl).
As to `CC(=O)Nc1cc2ccc3cccc4ccc(c1)c2c34`, the photoluminescence quantum yield by setting is: (in CC#N) 0.09; (in CCCCOCCCC) 0.1; (in CO) 0.07.
As to `CN(C)c1cc(-c2ccc(C#Cc3ccccc3)cc2)cc2ccccc12`, under “in ClCCl”, the photoluminescence quantum yield was determined as 0.7.
Same read-out and setting: as for `Brc1ccc(/C=C/c2cnc3ccccc3n2)cc1`, the figure is 0.02.
Consider `CCN(CC)c1ccc2cc(/C=C/C3=C4CC/C(=C\c5cc6ccc(N(CC)CC)cc6oc5=O)C4=[O+][B-](F)(F)O3)c(=O)oc2c1`, for which the photoluminescence quantum yield runs as follows: (in C1COCCO1) 0.3; (in CC(C)=O) 0.18; (in CCOC(C)=O) 0.2; (in CS(C)=O) 0.0068; (in Cc1ccccc1) 0.4; (in ClC(Cl)Cl) 0.22.
Where the note is “in ClCCl”, `C[Si]1(C)O[Si](C)(C)c2cc3c(-c4ccccc4F)c4cc(Cl)ccc4nc3cc21` registered a photoluminescence quantum yield of 0.56.
Where the note is “in Cc1ccccc1”, `F[B-]1(F)Oc2ccccc2-c2nc(-c3ccccc3)c3ccccc3[n+]21` registered a photoluminescence quantum yield of 0.013.
`c1ccc2c(P(c3c4ccccc4cc4ccccc34)c3c4ccccc4cc4ccccc34)c3ccccc3cc2c1`: the photoluminescence quantum yield (in C1CCOC1) was 0.
Consider `CC(=O)Nc1cccc2c1C#Cc1c(cccc1C(=O)N(C)C)OCCCO2`, for which the photoluminescence quantum yield by setting is: (in CC#N) 0.005; (in ClCCl) 0.012.
As to `c1ccc2c(c1)[nH]c1c3ccccc3[nH]c21`, under “in CCCO”, the photoluminescence quantum yield was 0.89.
